Measurements from article PMC9055273 (RSC Advances, 2020).

Tested on: bacteria
Conditions: 10 μM

## c1ccncc1 [pyridine]
  Inhibition of bacterial growth: did not obviously inhibit bacterial growth
